What was measured:
[1] = test system: lipid peroxidation activity of each tissue homogenate (brain, heart and kidney); assay: Tissue migration properties: ex vivo lipid peroxidation inhibition in brain, heart and kidney homogenates; conditions: SD male rats, 100 mg/kg intraperitoneally, 30 minutes after administration
Protocol: An in vitro lipid peroxidation inhibition of the compounds of the present invention was evaluated by measuring a lipid peroxidation activity in a rat brain homogenate according to a process of Malvy, c., et al., Biochemical and Biophysical Research Communications, 1980, Vol. 95, p. 734-737. That is, a rat brain was extracted and a 5-fold amount of an aqueous phosphoric acid buffered saline solution (pH 7.4) (hereinafter abbreviated to PBS) was added to the brain under ice cooling, followed by homogenization using a Teflon homogenizer and further centrifugation at 10,000 g for 20 minutes to prepare a brain homogenate as a supernatant. To the brain homogenate thus prepared, 500 μM cysteine, 5 μM sulfuric acid monobasic iron and 100 mM KCl were added, followed by incubation at 37° C. for 30 minutes. Malondialdehyde produced by the […] of lipid peroxidation was measured by a thiobarbituric acid process.
Tissue migration properties of the compounds of the present invention were evaluated by measuring an ex vivo lipid peroxidation inhibition. A solution or suspension prepared by dissolving or suspending each of test compounds in an aqueous physiological saline solution or a 1% poly oxy ethylene hydrogenated castor oil (NIKKOL HCO-60, manufactured by Nikko Chemicals Co., Ltd.) physiological saline solution was intraperitoneally administered to SD male rats (one group: 3 rats, 6 weeks old) (available from Nippon SLC Co., Ltd.) at a dose of 100 mg/kg. 30 Minutes after administration, rats were bled to death by cutting the carotid artery and then the brain, heart and kidney were extracted. A lipid peroxidation activity of each tissue homogenate was measured by the process described in Example 18. An inhibition ratio in each tissue of the compounds of the present invention was determined from the amount of lipid peroxidation produced of a control group (physiological saline administration group) and a test compound administration group.

[2] = test system: 66 kDa protein in the retina; assay: 66 kDa protein increase inhibitory action in retina of rats irradiated with UV-A; type: in vivo; conditions: Wistar male rats, 10 mg/kg, p.o., UV-A irradiation, retina 48 hours after irradiation, N = 3
Protocol: An action for inhibition of an increase in 66 kDa protein in the retina of rats irradiated with ultraviolet light of the compounds of the present invention was evaluated. To Wistar male rats (7 to 9 weeks old), a solution or suspension prepared by dissolving or suspending each of test compounds in a 0.1N hydrochloric acid solution or a 1% poly oxy ethylene hydrogenated castor oil (NIKKOL HCO-60) solution was orally administered. After 30 minutes, right eye was irradiated with UV-A (12 mW/cm^2) using a UV spot light source for 30 minutes. Left eye was not irradiated (control). During irradiation with UV-A and 2 hours before and after irradiation, rats were bred under an atmosphere where room light is screened. 48 hours after irradiation, the retina was separated. In the same manner as in Example 21, a 5% homogenate solution was prepared. Regarding a change in retinal protein, SDS-polyacrylamide electrophoresis was carried out according to the process of Lammli (Nature, […], 680-685, 1970). […] Then, the specimen was decolored with ethanol:acetic acid:water (25:8:65) and the 66 kDa protein after migration was analyzed by a densitograph. The amount of the protein in the specimen was determined by a Lowry process.

[3] = target: T1, 15-LO obtained from reticulocyte of rabbit (Oryctolagus cuniculus, UniProt P12530); assay: 15-lipoxygenase (15-LO) inhibitory activity, 15-HETE production; type: biochemical; conditions: 15-LO from reticulocyte of rabbit, linoleic acid
T1 construct: 15-LO obtained from reticulocyte of rabbit; from tissue; host or cells: rabbit reticulocytes
T1 sequence (P12530 1-663): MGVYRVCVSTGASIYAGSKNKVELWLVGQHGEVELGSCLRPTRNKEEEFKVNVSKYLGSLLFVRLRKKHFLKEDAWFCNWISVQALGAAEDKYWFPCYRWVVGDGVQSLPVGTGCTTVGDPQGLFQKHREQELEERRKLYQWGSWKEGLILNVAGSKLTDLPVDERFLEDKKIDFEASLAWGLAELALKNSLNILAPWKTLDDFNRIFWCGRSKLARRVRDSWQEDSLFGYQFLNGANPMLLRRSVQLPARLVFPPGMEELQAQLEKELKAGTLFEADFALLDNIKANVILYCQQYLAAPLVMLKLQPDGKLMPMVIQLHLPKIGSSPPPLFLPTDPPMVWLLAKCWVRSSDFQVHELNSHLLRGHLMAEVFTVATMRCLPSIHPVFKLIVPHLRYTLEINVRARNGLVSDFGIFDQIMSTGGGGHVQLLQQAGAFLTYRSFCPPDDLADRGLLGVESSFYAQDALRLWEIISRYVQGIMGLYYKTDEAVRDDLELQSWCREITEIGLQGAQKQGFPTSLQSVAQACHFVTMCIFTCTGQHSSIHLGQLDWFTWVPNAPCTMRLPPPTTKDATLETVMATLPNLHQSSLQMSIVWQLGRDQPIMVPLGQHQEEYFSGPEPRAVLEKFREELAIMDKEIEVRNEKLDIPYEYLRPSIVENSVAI
Protocol: A 15-LO inhibitory activity was measured by a partially modified process of a process of Auerbach et al. (Auerbach B. J, et al., Anal. Biochem.: 201, 375-80, 1992). That is, 15-LO obtained from reticulocyte of rabbit and each of test compounds dissolved in DMSO (final concentration: 1%) were preincubated (4° C., 15 minutes) in phosphoric acid buffer (pH 7.4) and 256 μM linoleic acid was further added, followed by incubation (4° C., 10 minutes). The amount of 15-HETE produced as a result of incubation was determined by spectrophotometry (OD660nm) and 50% production inhibitory concentration (μM) against 15-LO of each test compound was calculated. Compounds (R-3) and (R-4) (edaravone) of the following formulas were used as a control drug.

Cc1c(C)c2c(c(C)c1N)CC(C)(CN1CCN(c3cccc(-n4ccnc4)c3)CC1)O2 (centres unmarked) [Compound B-1-18]
Ex vivo lipid peroxidation inhibition inhibition ratio (%) Brain ([1]; brain homogenate): 77%
Ex vivo lipid peroxidation inhibition inhibition ratio (%) Heart ([1]; heart homogenate): 88%
Ex vivo lipid peroxidation inhibition inhibition ratio (%) Kidney ([1]; kidney homogenate): 89%
66 kDa protein ratio in retina of rats irradiated with ultraviolet light (right eye: irradiated/left eye: non-irradiated) [2]: 1.50
IC50 [3]: 1.54 µM

— patent publication US7553837B2, “Phenylazole compounds production process and antioxidants” (Nippon Soda Co., Ltd., priority 2003, dated 2009)
